Source: US20030130180A1, “Utilization of an aminopeptidase inhibitor” (priority 2000, published 2003)

Experiments:
tumor cells [1] = conditions: cited from earlier work; for tumor cell invasion: in vitro, matrigel analytic system
tumor cells [2] = conditions: cited from earlier work
[3] = system: tumor cells and immune cells; assay: Cell-biological experiments on blocking of polarization of tumor cells and immune cells; type: cell-based; conditions: general statement
Excerpt: By means of a method of simultaneously detecting a number of cell surface proteins, it has been established that aminopeptidases will control cell surface proteins which are not part of the class of proteolytic enzymes, but belong to the class of the adhesion molecules, which adhesion molecules—in a certain combination and geometric array—will be decisive for the polarization of the cells. Consequently, aminopeptidases appear to be superordinate control proteins in a protein network consisting of up to 30 different cell surface protein species which—through specific interaction with one another—will control polarization of tumor cells and other invasive cells such as immune cells and which are listed above. The inhibition of at least one aminopeptidase will lead to a reproducible modification of surface protein combinations on the cell surface which will always also involve a modification of CD13. […] The term polarization as used here shall denote a process in which a primarily spherical cell will transition into an oblong, elongated cell shape, via various intermediate states. This process which constitutes a change of shape controlled by the complex protein network is the prerequisite for cell migration, since only cells of oblong shape are capable of migrating. The polarization process therefore needs to precede all cell migration processes, including invasion. […]

SMILES	formation of cell extensions (tumor cells [1])	tumor cell invasion (tumor cells [1])	degradation of type IV collagen (tumor cells [2])	invasion of tumor cells (tumor cells [2])	tumor cell adhesion and migration to the extracellular matrix (tumor cells [2])	modification of the surface proteins of the protein network [3]
CCc1cccc(CC)c1N1C(=O)Cc2ccccc2C1=O [PIQ-22]	suppression of the formation of cell extensions	inhibition of the invasion				
CC(C)C[C@H](NC(=O)[C@@H](O)[C@H](N)Cc1ccccc1)C(=O)O [bestatin]	no effect	do not have an effect	capable of preventing degradation of the type IV collagen	preventing the invasion of tumor cells	does not have any influence	leading to a modification of the surface proteins of the protein network
